Series [1] concerns HFDPC. Briefly: Immunofluorescent staining of vimentin. Format: cell-based, human. The settings on record: 2. Concentration (2c).
The test system of a further series is VEGF. The series is described as follows: VEGF-ELISA in cell culture supernatant. Format: cell-based, human. An excerpt: If the cell membrane is damaged, the lactadehydrogenase (LDH) present inside the cell is released into the cell culture supernatant. The resulting NADH/H+ reduces the tetrazolium salt present in the reaction mixture to formazan. This becomes visible by a colour change, which can be detected at an absorption of 450 nm (y-axis: OD 450 nm) in the microplate reader. The higher the intensity of the colour change, the greater the degree of membrane damage. A low OD 450 nm value is desired. Four diagrams are presented: The LDH level after one week (LDH 1st Week of Trial), two weeks (LDH 2nd Week of Trial) and three weeks (LDH 3rd Week of Trial) after the HFDPC cells were exposed to the control conditions or to the actives substances. The control conditions are HFDPC with medium (blue, C+M). Active substances are arachidonate with low concentration (purple, Ara 1.c), arachidonate with high concentration (orange, Ara 2.c), diosgenin with low concentration (black, Dios 1.c), diosgenin with high concentration (brown, […]), ricinoleic acid with low concentration (dark blue, Rici 1.c), ricinoleic acid with high concentration (dark violet, Rici 2.c), inventive example with low concentration (red, IE 1.c) inventive example with high concentration (green, IE 2.c). The fourth diagram presents a background control, in which the LDH level was measured by OD 450 nm values (y-axis) from the cell culture supernatant for the medium (blue, M) as a control test and for the medium with the active substance in high concentrations (green, M+Ara 2.c; purple, M+Dios 2.c; orange, M+Rici 2.c; black, M+IE 2.c) after one, two and three weeks (x-axis). • FIG 2: Phase contrast images of untreated HFDPC (HFDPC in medium) 1 week after cell cultivation a) 10x magnification, b) 20x magnification • FIG 3: Phase contrast images of treated HFDPC in 20x magnification, one week after addition of the active ingredient a) Ara 1.c, b) Ara 2.c, c) Rici 1.c, d) Rici 2.c, e) Dios 1.c, f) Dios 2.c, g) IE 1.c, h) IE 2.c • FIG 4: Phase contrast images of untreated and treated HFDPC in 20x magnification, two weeks after addition of the active ingredient a) Medium b) Ara 1.c, c) Ara 2.c, d) Rici 1.c, e) Rici 3.c, f) Dios 1.c, g) Dios 2.c, h) IE 1.c, i) IE 2.c • FIG 5: Phase contrast images of untreated and treated HFDPC in 20x magnification, three weeks after addition of the active ingredient a) Medium b) Ara 1.c, c) Ara 2.c, d) Rici 1.c, e) Rici 3.c, f) Dios 1.c, g) Dios 2.c, h) IE 1.c, i) IE 2.c • FIG 6: Alkaline Phosphatase Alkaline phosphatase (AP) is an enzyme that catalyses the hydrolysis of a large number of phosphate esters. The enzyme is formed by the HFDPCs during the hair cycle. Thus, the detection of AP is the proof of hair growth. […]
(In general: An ELISA detects its analyte on a solid surface through an enzyme-linked reagent.)

In series [2] the test system is HFDPC. The series is described as follows: Cell count after trypsination. Format: cell-based, human. The settings on record: for influence on the cell count (summary): over 3 weeks. As for the experimental part: (§1) First, Human Follicle Dermal Papilla Cells (HFDPC) cells were thawed and seeded into collagen-coated cell culture flasks (T25). Then the medium was changed every 48 h. After 4 days the cells were trypsinized and seeded in T75 cell culture flask. In preparation for the final experiment, the cells were trypsinized and then counted with a cell counter. The cell concentration was then adjusted in a defined amount of medium followed by seeding of the cells in 96-well plates for the subsequent cell impedance measurements (5000 cells per well) or in 24-well plates (20000 cells per well). Subsequently, the cells were cultivated for 7 days in pure culture medium with regular medium changes after 2-3 days. After 7 days, the medium with the additives listed in Table 1 was added (designated as day 0), followed by a 3-week cultivation of the cells. The medium (and addition of fresh active substances) was changed every 2-3 days. […] The following examinations were carried out after 7, 14 and 21 days. Cells in pure culture medium (C+M) were used as controls (untreated). All cell culture substrates were coated with collagen prior to cell seeding. The tests with HFDPC were run without the use of preservatives.
This investigation was performed on a 24-well scale.
To perform this investigation 5000 cells per well were seeded in the 96-wells with the addition of a maximum of 200 µl medium. The cells were grown for 7 days in pure cell culture medium. The medium was changed every 2-3 days, whereby 100 µl of old medium was removed and replaced by 100 µl of new medium. After 7 days the "pure" cell culture medium was completely removed and medium with the respective additives was added. The cells were then cultivated for 3 weeks with regular replacement of the medium with the respective additives. Cell counting after trypsinizing: The exact cell count of HFDPC was determined after trypsination of the cells in the respective well and uptake of the resulting cell pellets in medium. All pellets of one sample were combined in a cell culture vessel and then counted with a cell counter.

Series [3] relates to HFDPC. Briefly: Assessment of cell morphology by phase contrast microscopy. Format: cell-based, human. Particulars: for cell adherence and proliferation (summary): confluence and cell shape after 3 weeks, diosgenin concentration-dependent. As for the experimental part:
as §1
Cell morphology was assessed through microscopic examination of the cells with an inverted microscope (phase contrast microscopy) at 10x and 20x primary magnification. The morphology of the cells provides information on the adherence behaviour of the cells,possible cell activation and cell stress. This examination was carried out on a 24-well scale.

The subject of series [4] is HFDPC. Briefly: Cell impedance test (xCELLigence, cell index) on proliferation and toxicity. Format: cell-based.
[5] abbreviates: 1. Concentration (1c), after 3 weeks.
[6] abbreviates: 2 weeks after addition, versus untreated cells.
The mark [7] stands for this setting: depending on concentration and time, compared to untreated cells.
Where [8] appears, read: 1 week after addition, versus untreated cells.
The mark [9] stands for this setting: 250 µg/mL in medium, first 24 hours after addition.

With `CCCCC/C=C\C/C=C\C/C=C\C/C=C\CCCC(=O)[O-].[Na+]` [Ara, Sodium Arachidonate], the “cell spreading and attachment to the cell culture substrate” value in the series with HFDPC [1] is “able to clearly spread and attach to the cell culture substrate”. The VEGF release entry in the series on VEGF (setting [5]) is “lower VEGF release”. The cell count entry is reported as “increase in HFDPC” in the series with HFDPC [2] (after 3 weeks, higher concentration, compared to untreated cells); “did not negatively affect the cell count” in the series on HFDPC [2] (entire duration of the experiment, independent of time and concentration); “remained constant” in the series on HFDPC [2] (over 2 weeks). Besides, the cell density result in the series with HFDPC [3] (2 weeks after addition, higher concentration) is “higher cell density”. Further, in the series with HFDPC [3] (setting [6]), the “cell morphology / confluence” value is “almost the same morphology”. In addition, the cell index entry in the series with HFDPC [4] (50 µg/mL in medium) is “increase the cell index”. The “toxic effect on the cells” value in the series on HFDPC [4] (50 µg/mL in medium) was “does not have a toxic effect”; in the series on HFDPC [4] (100µg/mL in medium) it was “has a toxic effect”.

In the case of `C[C@@H]1CC[C@@]2(OC1)O[C@H]1C[C@H]3[C@@H]4CC=C5C[C@@H](O)CC[C@]5(C)[C@H]4CC[C@]3(C)[C@H]1[C@@H]2C` [Dios, Diosgenin], the “cell spreading and attachment to the cell culture substrate” value in the series on HFDPC [1] was “able to clearly spread and attach to the cell culture substrate”. The VEGF release entry in the series on VEGF (1. Concentration (1c), after 1 week) is reported as “lower VEGF release”; with VEGF (setting [5]), “lower VEGF release”. Further, the “number of HDFPC” value in the series with HFDPC [2] (1c, over time) is “remained constant after addition of Diosgenin 1c, but was increased compared to untreated cells”. Moreover, the cell number entry in the series with HFDPC [2] (2c, over time, compared to untreated and Diosgenin 1c treated cells) is reported as “significant increase in cell number”. Also, the cell count entry in the series with HFDPC [2] (setting [7]) is reported as “positive influence on the cell number”. Also, the “influence on the cell count (summary)” value with HFDPC [2] is on record as “positive influence on the cell count”. The “cell morphology / confluence” value with HFDPC [3] (setting [8]) was “greater confluence”; with HFDPC [3] (setting [6]), “very high confluence in the well and elongated, typical growth”; in the series on HFDPC [3] (3 weeks after addition, lower concentration), “resembled untreated cells”. Moreover, in the series on HFDPC [3], the “cell adherence and proliferation (summary)” value is recorded as “very beneficial”. Also, in the series on HFDPC [4] (measured maximum concentration of 500 µg/mL), the “toxicity in the cellular impedance test” value is reported as “not toxic”.

On to `CCCCCC[C@@H](O)C/C=C\CCCCCCCC(=O)O` [Rici, 12-hydroxy-9-cis-octadecenoic acid], for which the VEGF release result with VEGF (2. Concentration (2.c), after 3 weeks) is “lower VEGF release”. Further, the cell count result in the series with HFDPC [2] (after 1 week, compared to untreated cells) is recorded as “difference was visible”; with HFDPC [2] (setting [7]) it was “significant increase in cell count”. The “influence on the cell count (summary)” value in the series with HFDPC [2] is listed as “positive influence on the cell count”. Also, the “cell morphology / confluence” value in the series with HFDPC [3] (setting [8]) was “greater confluence”; in the series on HFDPC [3] (setting [6]), “very high confluence in the well and elongated, typical growth”; in the series with HFDPC [3] (3 weeks after addition, both concentrations), “confluent, very dense monolayer and an elongated cell shape”. Besides, the “cell adherence and proliferation (summary)” value with HFDPC [3] is “very beneficial”. Further, the cell index entry is “remained constant” with HFDPC [4] (100µg/mL, after 24 h and 48 h addition); “positive influence on the cell index” in the series on HFDPC [4] (setting [9]); “decreases” with HFDPC [4] (250 µg/mL, after 48h of repeated addition). Besides, in the series on HFDPC [4] (setting [9]), the “toxic effect on the cells” value is “does not appear to have a toxic effect”.

Source of the values: patent EP3895685A1, “NATURAL COMPOSITION FOR HAIR GROWTH STIMULATION AND HAIR LOSS PREVENTION AND TREATMENT WITHOUT PRESERVATIVES” (Fraunhofer-Gesellschaft zur Förderung der angewandten …, priority 2020, dated 2021).
